# Reference: patent US20220280457A1, “ORAL PHARMACEUTICAL IMMEDIATE RELEASE COMPOSITION AND METHOD OF TREATMENT FOR WEIGHT LOSS” (AARDVARK THERAPEUTICS INC., priority 2019, published 2022)
# Key:
# healthy volunteers = conditions: cited from earlier work
# male C57BL/6N DIO mice = experiment: 56-day BID treatment of DIO mice: food consumption and body weight (Example 6, second in vivo study); parameters: species or system mouse; conditions: for Body weight gain as compared to vehicle treatment: high-fat diet, oral BID 56 days
# Experimental: In a second in vivo study, 45 male C57BL/6N DIO mice (purchased from Envigo at 18 weeks of age, fed with high-fat diet) were divided into three groups (15 in each group), which were orally administered vehicle (distilled water), 26.8 mg/kg of DB, or 23.1 mg/kg of DA respectively, twice daily (BID), with a 56-day treatment period to compare the efficacy of DB versus DA in food intake reduction and body weight control. Briefly, once weekly, the food weight for each cage was recorded at 0 hour and then 24 hours later, permitting calculation of food consumption for that 24-hour interval. In addition, starting from Day 0, the mice were weighed three times weekly (every 2-3 days).
# The mean food consumption per animal for 24-hour intervals at indicated measurement days during the treatment period are shown in Table.
# The mean absolute body weight change (in grams) and normalized body weight change (% of baseline) during 56-day treatment period of the three treatment groups are presented in […]. and Table 6.
# male SD rats = experiment: Single oral dose, 24-hour cumulative food intake study in rats (Example 6, first in vivo study); parameters: species or system rat; conditions: for Cumulative food intake as compared with vehicle: all indicated time intervals, DA 23.1 mg/kg, DB 26.8 mg/kg
# Experimental: This example compares efficacy of DA versus DB in food inhibition and body weight control. As a background, according to Avau et al., Sci. Rep. […] In our first in vivo study, 45 male SD rats (purchased from Envigo at 8-10 weeks of age) were divided into three groups (15 in each group), which were administered a single oral dose of vehicle (distilled water), 26.8 mg/kg of DB, or 23.1 mg/kg of DA respectively, with a 24-hour observational period, to compare the efficacy of DB versus DA in reducing food intake.
# rodent obesity models = conditions: benzoate salt of denatonium; cited from earlier work
# [1] = test system: C57BL/6NTad mice, diet-induced obesity (DIO) mouse model; experiment: 56-day diet-induced obesity (DIO) mouse weight loss study, DA versus DB (Example 3); type: in vivo; conditions: DA 23.1 mg/kg BID PO
# Excerpt: The 56-day study determined the behavioral effects of bitter taste receptor agonists denatonium acetate (DA) compared to denatonium benzoate (DB) in a diet-induced obesity (DIO) mouse model. […] The study duration was a 3-5 day acclimation period +28 day study period and 2-3 day testing period after study. […] The mice were C57BL/6NTad mice at least 12 weeks in age and 15 mice per group (low dose DA, higher dose DA, high dose DB and control). […] Metabolic biomarkers (blood glucose, blood insulin, blood HbA1c) were measured at the beginning and end of the study. The DA, DB or distilled water control was administered per ostium gavage (PO) at a volume of 5 mL/kg body weight.
# [2] = oral BID, DA 23.1 mg/kg or DB 26.8 mg/kg
smiles,measurement,setting,value
"CC[N+](CC)(CC(=O)Nc1c(C)cccc1C)Cc1ccccc1.O=C([O-])c1ccccc1 [DB, benzyl-[2-(2,6-dimethylanilino)-2-oxoethyl]-diethylazanium benzoate]",Nutrient volume tolerance and satiation,healthy volunteers; 1 μmol/kg DB,decreased nutrient volume tolerance and increased satiation
same,"Gastric motility, nutrient volume tolerance, hunger ratings and satiation",healthy volunteers; intragastric administration,"attenuated inter-digestive gastric motility, reduced nutrient volume tolerance, decreased hunger ratings, and increased satiation post meal"
same,Body weight gain as compared to vehicle treatment,"male C57BL/6N DIO mice; DA 23.1 mg/kg, DB 26.8 mg/kg",less body weight gain
same,Mean normalized body weight (% of baseline) on study day 0,male C57BL/6N DIO mice; [2],100.0 % of baseline
same,Mean normalized body weight (% of baseline) on study day 4,"male C57BL/6N DIO mice; oral BID, DA 23.1 mg/kg or DB 26.8 mg/kg, day 4",100.5 % of baseline
same,Mean normalized body weight (% of baseline) on study day 7,"male C57BL/6N DIO mice; oral BID, DA 23.1 mg/kg or DB 26.8 mg/kg, day 7",99.7 % of baseline
same,Mean normalized body weight (% of baseline) on study day 9,"male C57BL/6N DIO mice; oral BID, DA 23.1 mg/kg or DB 26.8 mg/kg, day 9",99.4 % of baseline
same,Mean normalized body weight (% of baseline) on study day 11,"male C57BL/6N DIO mice; oral BID, DA 23.1 mg/kg or DB 26.8 mg/kg, day 11",99.0 % of baseline
same,Mean normalized body weight (% of baseline) on study day 14,"male C57BL/6N DIO mice; oral BID, DA 23.1 mg/kg or DB 26.8 mg/kg, day 14",99.3 % of baseline
same,Mean normalized body weight (% of baseline) on study day 16,"male C57BL/6N DIO mice; oral BID, DA 23.1 mg/kg or DB 26.8 mg/kg, day 16",98.0 % of baseline
same,Mean normalized body weight (% of baseline) on study day 18,"male C57BL/6N DIO mice; oral BID, DA 23.1 mg/kg or DB 26.8 mg/kg, day 18",97.9 % of baseline
same,Mean normalized body weight (% of baseline) on study day 21,"male C57BL/6N DIO mice; oral BID, DA 23.1 mg/kg or DB 26.8 mg/kg, day 21",99.5 % of baseline
same,Mean normalized body weight (% of baseline) on study day 23,"male C57BL/6N DIO mice; oral BID, DA 23.1 mg/kg or DB 26.8 mg/kg, day 23",100.5 % of baseline
same,Mean normalized body weight (% of baseline) on study day 25,male C57BL/6N DIO mice; [2],100.3 % of baseline
same,Mean normalized body weight (% of baseline) on study day 28,male C57BL/6N DIO mice; [2],100.2 % of baseline
same,Mean normalized body weight (% of baseline) on study day 30,male C57BL/6N DIO mice; [2],100.5 % of baseline
same,Mean normalized body weight (% of baseline) on study day 32,"male C57BL/6N DIO mice; oral BID, DA 23.1 mg/kg or DB 26.8 mg/kg, day 32",102.8 % of baseline
same,Mean normalized body weight (% of baseline) on study day 34,"male C57BL/6N DIO mice; oral BID, DA 23.1 mg/kg or DB 26.8 mg/kg, day 34",103.6 % of baseline
same,Mean normalized body weight (% of baseline) on study day 36,"male C57BL/6N DIO mice; oral BID, DA 23.1 mg/kg or DB 26.8 mg/kg, day 36",104.1 % of baseline
same,Mean normalized body weight (% of baseline) on study day 39,"male C57BL/6N DIO mice; oral BID, DA 23.1 mg/kg or DB 26.8 mg/kg, day 39",104.7 % of baseline
same,Mean normalized body weight (% of baseline) on study day 41,"male C57BL/6N DIO mice; oral BID, DA 23.1 mg/kg or DB 26.8 mg/kg, day 41",105.3 % of baseline
same,Mean normalized body weight (% of baseline) on study day 46,"male C57BL/6N DIO mice; oral BID, DA 23.1 mg/kg or DB 26.8 mg/kg, day 46",106.0 % of baseline
same,Mean normalized body weight (% of baseline) on study day 49,"male C57BL/6N DIO mice; oral BID, DA 23.1 mg/kg or DB 26.8 mg/kg, day 49",107.8 % of baseline
same,Mean normalized body weight (% of baseline) on study day 51,"male C57BL/6N DIO mice; oral BID, DA 23.1 mg/kg or DB 26.8 mg/kg, day 51",107.8 % of baseline
same,Mean normalized body weight (% of baseline) on study day 53,"male C57BL/6N DIO mice; oral BID, DA 23.1 mg/kg or DB 26.8 mg/kg, day 53",107.4 % of baseline
same,Mean normalized body weight (% of baseline) on study day 56,"male C57BL/6N DIO mice; oral BID, DA 23.1 mg/kg or DB 26.8 mg/kg, day 56",108.4 % of baseline
same,Cumulative food intake as compared with vehicle,male SD rats,reduced cumulative food intake
same,Food intake and weight gain in rodent obesity models,rodent obesity models,suppressed food intake and inhibited weight gain
"CC(=O)[O-].CC[N+](CC)(CC(=O)Nc1c(C)cccc1C)Cc1ccccc1 [DA, Denatonium acetate]",Average body weights at the indicated days (FIG. 1),[1]; 56 days,lowest average body weights
same,Serum insulin at the end of the 56 day study (FIG. 3),[1]; versus pre-treatment baseline and vehicle,"close to baseline value (i.e., pre-treatment) and noticeably lower compared to the vehicle-treated group"
same,"Body weight gain, DA versus DB","male C57BL/6N DIO mice; Day 34 to Day 56, 23.1 mg/kg DA vs 26.8 mg/kg DB",body weight gain was less
same,"Food consumption, DA versus DB","male C57BL/6N DIO mice; all indicated measurement days except for Day 42, 23.1 mg/kg DA vs 26.8 mg/kg DB",food consumption was less
same,Body weight gain as compared to vehicle treatment,"male C57BL/6N DIO mice; DA 23.1 mg/kg, DB 26.8 mg/kg",less body weight gain
same,Food consumption compared to vehicle-dosed mice,"male C57BL/6N DIO mice; oral BID, 56 days, DA 23.1 mg/kg, DB 26.8 mg/kg",nominally decreased food consumption
same,Mean normalized body weight (% of baseline) on study day 0,male C57BL/6N DIO mice; [2],100.0 % of baseline
same,Mean normalized body weight (% of baseline) on study day 25,male C57BL/6N DIO mice; [2],100.0 % of baseline
same,Mean normalized body weight (% of baseline) on study day 28,male C57BL/6N DIO mice; [2],100.0 % of baseline
same,Mean normalized body weight (% of baseline) on study day 30,male C57BL/6N DIO mice; [2],100.0 % of baseline
same,"Food intake reduction, DA versus DB",male SD rats; 23.1 mg/kg DA (57.4 μmol/kg) vs 26.8 mg/kg DB (60 μmol/kg),a greater food intake reduction
same,Cumulative food intake as compared with vehicle,male SD rats,reduced cumulative food intake
